These results are taken from patent publication US20080200530A1 (priority 2005, published 2008).

Assay [1] concerns DOI-induced hypolocomotion. Kind of assay: Attenuation of DOI-induced hypolocomotion in rats. The format is in vivo, rat. To be noted: 50 μmol/kg p.o., 60 min before DOI 0.3 mg/kg s.c. Here is the method: In this Example, compounds of the invention, such as Compound 1 and Compound 26, were tested for inverse agonist activity by determining whether these compounds could attenuate DOI-induced hypolocomotion in rats in a novel environment. DOI is a potent 5HT2A/5HT2C receptor agonist that crosses the blood-brain barrier.
Male Sprague-Dawley rats (Harlan, San Diego, Calif.) weighing between 200-300 g were used for all tests. Rats were housed three to four per cage. These rats were naive to experimental testing and drug treatment. Rats were handled one to three days before testing to acclimate them to experimental manipulation. Rats were fasted overnight prior to testing.
(R)-DOI HCl (C11H16INO2HCl) was obtained from Sigma-Aldrich, and was dissolved in 0.9% saline. […]
The “Motor Monitor” (Hamilton-Kinder, Poway, Calif.) was used for all activity measurement. This apparatus recorded rears using infrared photobeams. […]
In determining the effects of compounds of the invention on DOI-induced hypoactivity, animals were first injected with vehicle or the compound of the invention (50 μmol/kg) in their home cages. […] 10 min after DOI administration, animals were placed into the activity apparatus and rearing activity was measured for 10 minutes.
Results (total rears over 10 minutes) were analyzed by t-test. […]

A further assay concerns the target T1, 5HT2A receptor (Rattus norvegicus, UniProt P14842).
T1 construct: from tissue; host or cells: Sprague-Dawley rat brain, horizontal cryostat sections (cerebral cortex)
As to the kind of experiment: 125I-LSD displacement from brain sections, autoradiography, cortex. The format is binding, Sprague-Dawley rats. The note with it: 1 micromolar compound, 1 nanomolar 125I-LSD.

For assay [2], the system named is JC virus infection of human glial cells. The note with it: Elphick et al., Science (2004); cited from earlier work.
Assay [3] addresses T2, endogenous human 5-HT2C receptor (Homo sapiens, UniProt P28335).
T2 sequence (P28335 33-458): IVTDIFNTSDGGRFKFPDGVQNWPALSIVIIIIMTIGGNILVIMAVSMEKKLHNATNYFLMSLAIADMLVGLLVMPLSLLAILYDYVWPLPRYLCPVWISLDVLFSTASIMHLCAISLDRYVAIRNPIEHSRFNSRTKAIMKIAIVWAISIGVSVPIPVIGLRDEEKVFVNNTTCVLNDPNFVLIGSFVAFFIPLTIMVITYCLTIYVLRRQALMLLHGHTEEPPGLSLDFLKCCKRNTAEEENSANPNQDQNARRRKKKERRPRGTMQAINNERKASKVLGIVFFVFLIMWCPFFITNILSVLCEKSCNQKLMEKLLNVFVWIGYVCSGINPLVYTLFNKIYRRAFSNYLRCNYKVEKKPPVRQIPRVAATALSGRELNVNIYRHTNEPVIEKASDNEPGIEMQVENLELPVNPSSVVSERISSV

Molecules are shown by their SMILES.

T1 sequence (P14842 whole entry): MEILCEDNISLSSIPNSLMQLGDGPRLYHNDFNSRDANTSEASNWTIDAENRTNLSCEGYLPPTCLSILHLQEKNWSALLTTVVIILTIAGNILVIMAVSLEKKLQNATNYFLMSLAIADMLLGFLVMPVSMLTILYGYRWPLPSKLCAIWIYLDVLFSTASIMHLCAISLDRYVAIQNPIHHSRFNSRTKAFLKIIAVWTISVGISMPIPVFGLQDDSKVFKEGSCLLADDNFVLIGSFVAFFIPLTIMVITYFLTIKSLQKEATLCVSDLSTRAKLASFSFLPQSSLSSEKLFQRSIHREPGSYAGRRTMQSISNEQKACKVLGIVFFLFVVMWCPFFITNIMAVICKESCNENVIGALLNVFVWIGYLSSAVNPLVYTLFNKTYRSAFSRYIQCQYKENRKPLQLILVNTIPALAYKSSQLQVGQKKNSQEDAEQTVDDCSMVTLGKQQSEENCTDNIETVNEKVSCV

With `COc1ccc(NC(=O)Nc2ccc(Cl)cc2)cc1-c1c(Br)cnn1C` [Compound 1, 1-[3-(4-Bromo-2-methyl-2H-pyrazol-3-yl)-4-methoxy-phenyl]-3-(4-chloro-phenyl)-urea], the “effect on DOI-induced hypolocomotion (total rears over 10 minutes)” value in assay [1] is “attenuated DOI-induced hypolocomotion”.

As for `COc1ccc(NC(=O)Nc2ccc(Cl)cc2)cc1-c1c(Cl)cnn1C` [Compound 26, 1-[3-(4-Chloro-2-methyl-2H-pyrazol-3-yl)-4-methoxy-phenyl]-3-(4-chloro-phenyl)-urea], the “effect on DOI-induced hypolocomotion (total rears over 10 minutes)” value in assay [1] is listed as “attenuated DOI-induced hypolocomotion”. Turning to `COc1ccc(OC(=O)Nc2cccc(-c3c(Br)cnn3C)c2)cc1` [Compound S-1610, [3-(4-Bromo-2-methyl-2H-pyrazol-3-yl)-phenyl]-carbamic acid 4-methoxy-phenyl ester], the “displacement of 125I-LSD from the cortex (5HT2A)” value on 5HT2A receptor was “selectively displace”.

In the case of `Cc1nc2sccn2c(=O)c1CCN1CCC(=C(c2ccc(F)cc2)c2ccc(F)cc2)CC1` [Ritanserin], the “JC virus infection of human glial cells” value in assay [2] is “inhibited”. In the case of `O=C(c1ccc(F)cc1)C1CCN(CCn2c(=O)[nH]c3ccccc3c2=O)CC1` [ketanserin], in assay [2], the “JC virus infection of human glial cells” value was “inhibited”.

For `CN1CCN2c3ccccc3Cc3ccccc3C2C1` (stereo not shown) [mianserin], the “inhibition of serotonin-stimulated [35S]GTPγS binding” value in assay [3] (30 μM mianserin) was “inhibits this response”. In addition, in assay [3] (no agonist), the “effect on basal constitutive binding of [35S]GTPγS” value is on record as “partial inverse agonist”.
